Experimental data taken from patent US20090111743A1, “Cysteine-branched heparin-binding growth factor analogs” (BioSurface Engineering Technologies, Inc., priority 2005, published 2009).
Where no end group is shown, it is not given here. Side-chain parts run from the residue outwards. CX1X1X1RKRLDRIAR‑NH2 = not defined here; bMB = bis-maleimidobutane

How the values were obtained:
Type in all cases: cell-based
[1] = system: human fetal osteoblast cell line (hFOB); assay: Cell growth study, MTS relative cell number, hFOB cells; conditions: for % OF CONTROL VALUE / MEAN ABSORBANCE: hFOB, 3 days in culture, MTS
Procedure: (§1) The synthetic branched peptide construct of Example 4 was tested in cell growth studies, to determine the ability of the synthetic branched peptide construct to stimulate cell growth. Cell growth was monitored using a commercially available kit (Promega Corporation, Madison, Wis.) based on a tetrazolium compound (3-(4,5-dimethylthiazol-2-yl)-5-(3-carboxymethoxyphenyl)-2-(4-sulfophenyl)-2H-tetrazolium, inner salt (MTS). Aliquots of 10^3 cells were seeded into wells of 96-well plates and allowed to attach. The medium was then replaced with a low serum medium containing between 0 and 10 μg/mL of the synthetic branched peptide construct of Example 4. After 3 days in culture, the relative cell number was monitored using MTS following the directions of the manufacturer. Statistical significance was determined using ANOVA followed by post-hoc multiple comparisons versus control group (Dunnett's Method).
(§2) MC3T3E1 osteoblastic cells, C3H10T1/2 mouse pluripotent stem cells, C2C12 murine myoblasts, and cells from a human fetal osteoblast cell line (hFOB) were obtained from the American Type Culture Collection (Manassas, Va.) and were maintained in DMEM:F12 medium containing newborn calf serum and antibiotics. MC3T3E1, C3H10T1/2, and hFOB cells were positive for growth induction by synthetic branched peptide construct of […] as shown in Table 3 below. The effective concentration was between 1 and 10 μg/mL. C2C12 was negative for growth using the synthetic branched peptide construct of Example 4.

[2] = system: MC3T3E1 osteoblastic cells; assay: Cell growth study, MTS relative cell number, MC3T3E1 cells; conditions: for % OF CONTROL VALUE / MEAN ABSORBANCE: 3 days in culture, MTS
Procedure: as §1, §2

[3] = system: C3H10T1/2 mouse pluripotent stem cells; assay: Cell growth study, MTS relative cell number, C3H10T1/2 cells; conditions: for % OF CONTROL VALUE / MEAN ABSORBANCE: 3 days in culture, MTS
Procedure: as §1, §2

C2C12 murine myoblasts = assay: Cell growth study, MTS relative cell number, C2C12 cells; conditions: for % OF CONTROL VALUE / MEAN ABSORBANCE: 3 days in culture, MTS
Procedure: as §1, §2

NH2-LYVDFSDVGWNDWC(bMB-CX1X1X1RKRLDRIAR-amide)-AISMLYLDENEKVVL-amide (chain 1 H-LYVDFSDVGWNDWC([bMB-CX1X1X1RKRLDRIAR‑NH2]); chain 2 AISMLYLDENEKVVL-NH2; reading uncertain; also: chains 1 and 2 form one continuous backbone (C14 of chain 1 peptide-bonded to A1 of chain 2), printed as NH2-LYVDFSDVGWNDWC(bMB-CX1X1X1RKRLDRIAR-amide)-AISMLYLDENEKVVL-amide) [Example 4, heterodimeric BMP-2 analog branched via cysteine and 1,4-bis-maleimidobutane; X1 is 6-aminohexanoic acid]
growth induction ([1]; hFOB cells, 0 to 10 μg/mL, 3 days): positive
% OF CONTROL VALUE ([1]; 0.5 μg/mL): 121%
MEAN ABSORBANCE ([1]; 0.5 μg/mL): 0.58
% OF CONTROL VALUE ([1]; 1 μg/mL): 131%
MEAN ABSORBANCE ([1]; 1 μg/mL): 0.62
% OF CONTROL VALUE ([1]; 2 μg/mL): 135%
MEAN ABSORBANCE ([1]; 2 μg/mL): 0.64
% OF CONTROL VALUE ([1]; 5 μg/mL): 127%
MEAN ABSORBANCE ([1]; 5 μg/mL): 0.60
% OF CONTROL VALUE ([1]; 10 μg/mL): 130%
MEAN ABSORBANCE ([1]; 10 μg/mL): 0.62
% OF CONTROL VALUE ([2]; MC3T3E1, 0.5 μg/mL): 103%
MEAN ABSORBANCE ([2]; MC3T3E1, 0.5 μg/mL): 0.74
% OF CONTROL VALUE ([2]; MC3T3E1, 1 μg/mL): 99%
MEAN ABSORBANCE ([2]; MC3T3E1, 1 μg/mL): 0.71
% OF CONTROL VALUE ([2]; MC3T3E1, 2 μg/mL): 138%
MEAN ABSORBANCE ([2]; MC3T3E1, 2 μg/mL): 0.99
% OF CONTROL VALUE ([2]; MC3T3E1, 5 μg/mL): 133%
MEAN ABSORBANCE ([2]; MC3T3E1, 5 μg/mL): 0.96
% OF CONTROL VALUE ([2]; MC3T3E1, 10 μg/mL): 134%
MEAN ABSORBANCE ([2]; MC3T3E1, 10 μg/mL): 0.96
growth induction ([2]; MC3T3E1 cells, 0 to 10 μg/mL, 3 days): positive
% OF CONTROL VALUE ([3]; C3H10T1/2, 0.5 μg/mL): 147%
MEAN ABSORBANCE ([3]; C3H10T1/2, 0.5 μg/mL): 0.41
% OF CONTROL VALUE ([3]; C3H10T1/2, 1 μg/mL): 152%
MEAN ABSORBANCE ([3]; C3H10T1/2, 1 μg/mL): 0.42
% OF CONTROL VALUE ([3]; C3H10T1/2, 2 μg/mL): 158%
MEAN ABSORBANCE ([3]; C3H10T1/2, 2 μg/mL): 0.44
% OF CONTROL VALUE ([3]; C3H10T1/2, 5 μg/mL): 156%
MEAN ABSORBANCE ([3]; C3H10T1/2, 5 μg/mL): 0.43
% OF CONTROL VALUE ([3]; C3H10T1/2, 10 μg/mL): 144%
MEAN ABSORBANCE ([3]; C3H10T1/2, 10 μg/mL): 0.40
growth induction ([3]; C3H10T1/2 cells, 0 to 10 μg/mL, 3 days): positive
% OF CONTROL VALUE (C2C12 murine myoblasts; C2C12, 0.5 μg/mL): 99%
MEAN ABSORBANCE (C2C12 murine myoblasts; C2C12, 0.5 μg/mL): 0.30
% OF CONTROL VALUE (C2C12 murine myoblasts; C2C12, 1 μg/mL): 101%
MEAN ABSORBANCE (C2C12 murine myoblasts; C2C12, 1 μg/mL): 0.30
% OF CONTROL VALUE (C2C12 murine myoblasts; C2C12, 2 μg/mL): 99%
MEAN ABSORBANCE (C2C12 murine myoblasts; C2C12, 2 μg/mL): 0.30
% OF CONTROL VALUE (C2C12 murine myoblasts; C2C12, 5 μg/mL): 99%
MEAN ABSORBANCE (C2C12 murine myoblasts; C2C12, 5 μg/mL): 0.30
% OF CONTROL VALUE (C2C12 murine myoblasts; C2C12, 10 μg/mL): 90%
MEAN ABSORBANCE (C2C12 murine myoblasts; C2C12, 10 μg/mL): 0.27
growth induction (C2C12 murine myoblasts; C2C12 cells, 0 to 10 μg/mL, 3 days): negative
